According to ChEMBL document CHEMBL1128866, “Isophthalic acid derivatives: amino acid surrogates for the inhibition of HIV-1 protease” (Bioorg Med Chem Lett, 1995):

Key:
[1] = system: CCRF-CEM; assay: Antiviral activity in HIV-infected CEM cells using whole cell assay; assay type: functional, cell-based; conditions: Homo sapiens
[2] = target: Human immunodeficiency virus type 1 protease (Human immunodeficiency virus 1, UniProt Q72874); assay: Inhibitory activity against human immunodeficiency virus protease (HIVP) using protease inhibition assay
[3] = Peak oral plasma concentration was determined in rats by oral administration; assay type: ADME, organism-based; parameters: route oral; conditions: rat

SMILES | IC50 [1] | IC50 [2] | Cmax [3]
CC(C)(C)NC(=O)[C@@H]1C[C@@H]2CCCC[C@@H]2CN1C[C@@H](O)[C@H](Cc1ccccc1)NC(=O)[C@H](CC(N)=O)NC(=O)c1ccc2ccccc2n1 | 0.002 µM |  | 
Cc1ccc(C(=O)N2CCc3ccccc3C2)cc1C(=O)N[C@@H](Cc1ccccc1)[C@H](O)Cc1ccccc1C(=O)NC(C)(C)C |  | 0.0061 µM | 
Cc1ccc(C(=O)N(C)Cc2ccccn2)cc1C(=O)N[C@@H](Cc1ccccc1)[C@H](O)CN1C[C@H]2CCCC[C@H]2C[C@H]1C(=O)NC(C)(C)C | 0.077 µM | 0.0086 µM | 4.4 µM
Cc1cc(C(=O)N[C@@H](Cc2ccccc2)[C@H](O)Cc2ccccc2C(=O)NC(C)(C)C)cc(C(=O)N2CCc3ccccc3C2)c1 |  | 0.5 µM | 
Cc1ccc(C(=O)N2CCc3ccccc3C2)cc1C(=O)N[C@@H](Cc1ccccc1)[C@H](O)CN1C[C@H]2CCCC[C@H]2C[C@H]1C(=O)NC(C)(C)C | 1.4 µM | 0.0138 µM | < 0.1 µM
CC(C)(C)NC(=O)c1ccccc1C[C@@H](O)[C@H](Cc1ccccc1)NC(=O)[C@H](CC(N)=O)NC(=O)c1ccc2ccccc2n1 | 0.027 µM |  | < 0.1 µM
CC(C)(C)NC(=O)c1ccccc1C[C@@H](O)[C@H](Cc1ccccc1)NC(=O)c1cccc(C(=O)N2CCc3ccccc3C2)c1 |  | 0.05 µM | 
Cc1ccc(C(=O)N[C@@H](Cc2ccccc2)[C@H](O)Cc2ccccc2C(=O)NC(C)(C)C)cc1C(=O)N1CCc2ccccc2C1 |  | 0.67 µM | 
